Laboratory results from ChEMBL document CHEMBL3808371, “Design, synthesis and biological evaluation of diaziridinyl quinone isoxazole hybrids” (Eur J Med Chem, 2016).
In brackets after ≈: the same amount, converted by molar mass.

Legend:
Candida albicans [1] = assay: Fungicidal activity against Candida albicans MTCC 3018 after 24 hrs by serial dilution method; type: functional; settings: MTCC 3018, 24 h
Candida parapsilosis [2] = assay: Fungicidal activity against Candida parapsilosis MTCC 1744 after 24 hrs by serial dilution method; type: functional; settings: Lodderomyces parapsilosis, MTCC 1744, 24 h
Candida albicans [3] = assay: Fungicidal activity against Candida albicans MTCC 183 after 24 hrs by serial dilution method; type: functional; settings: MTCC 183, 24 h
Candida albicans [4] = assay: Fungicidal activity against Candida albicans MTCC 7315 after 24 hrs by serial dilution method; type: functional; settings: MTCC 7315, 24 h
[5] = Cytotoxicity against human PC3 cells after 72 hrs by XTT assay; type: functional, cell-based; settings: PC-3, 72 h
Nakaseomyces glabratus [6] = assay: Antimicrobial activity against Candida glabrata MTCC 3019 after 24 hrs by well diffusion method; type: functional; settings: MTCC 3019, 24 h
[Candida] aaseri [7] = Fungicidal activity against Candida aaseri MTCC 1962 after 24 hrs by serial dilution method; type: functional; settings: Yamadazyma aaseri, MTCC 1962, 24 h
Candida albicans [8] = assay: Antimicrobial activity against Candida albicans MTCC 3017 after 24 hrs by well diffusion method; type: functional; settings: MTCC 3017, 24 h
Candida albicans [9] = assay: Fungicidal activity against Candida albicans MTCC 3958 after 24 hrs by serial dilution method; type: functional; settings: MTCC 3958, 24 h
Pseudomonas aeruginosa = assay: Antimicrobial activity against Pseudomonas aeruginosa MTCC 2453 after 24 hrs by well diffusion method; type: functional; settings: MTCC 2453, 24 h
Pichia sporocuriosa [10] = assay: Antimicrobial activity against Issatchenkia hanoiensis MTCC 4755 after 24 hrs by well diffusion method; type: functional; settings: MTCC 4755, 24 h
Staphylococcus aureus [11] = assay: Antibiofilm activity against Staphylococcus aureus MTCC 96 after 24 hrs by crystal violet staining based assay; type: functional, organism-based; settings: MTCC 96, 24 h
Candida albicans [12] = assay: Antimicrobial activity against Candida albicans MTCC 854 after 24 hrs by well diffusion method; type: functional; settings: MTCC 854, 24 h
Candida albicans [13] = assay: Fungicidal activity against Candida albicans MTCC 854 after 24 hrs by serial dilution method; type: functional; settings: MTCC 854, 24 h
Candida albicans [14] = assay: Antimicrobial activity against Candida albicans MTCC 3958 after 24 hrs by well diffusion method; type: functional; settings: MTCC 3958, 24 h
A549 = assay: Cytotoxicity against human A549 cells after 72 hrs by XTT assay; type: functional, cell-based; settings: A549, 72 h
Pichia kudriavzevii [15] = assay: Fungicidal activity against Candida krusei MTCC 3020 after 24 hrs by serial dilution method; type: functional; settings: MTCC 3020, 24 h
Staphylococcus aureus [16] = assay: Bactericidal activity against Staphylococcus aureus MTCC 96 after 24 hrs by serial dilution method; type: functional; settings: MTCC 96, 24 h
Candida albicans [17] = assay: Fungicidal activity against Candida albicans MTCC 3017 after 24 hrs by serial dilution method; type: functional; settings: MTCC 3017, 24 h
[Candida] aaseri [18] = Antimicrobial activity against Candida aaseri MTCC 1962 after 24 hrs by well diffusion method; type: functional; settings: Yamadazyma aaseri, MTCC 1962, 24 h
Staphylococcus aureus [19] = assay: Antimicrobial activity against Staphylococcus aureus MLS16 MTCC 2940 after 24 hrs by well diffusion method; type: functional; settings: MLS16 MTCC 2940, 24 h
Candida albicans [20] = assay: Fungicidal activity against Candida albicans MTCC 227 after 24 hrs by serial dilution method; type: functional; settings: MTCC 227, 24 h
Escherichia coli = assay: Antimicrobial activity against Escherichia coli MTCC 739 after 24 hrs by well diffusion method; type: functional; settings: MTCC 739, 24 h
Staphylococcus aureus [21] = assay: Antimicrobial activity against Staphylococcus aureus MTCC 96 after 24 hrs by well diffusion method; type: functional; settings: MTCC 96, 24 h
Bacillus subtilis [22] = assay: Antibiofilm activity against Bacillus subtilis MTCC 121 after 24 hrs by crystal violet staining based assay; type: functional, organism-based; settings: MTCC 121, 24 h
Pichia kudriavzevii [23] = assay: Antimicrobial activity against Candida krusei MTCC 3020 after 24 hrs by well diffusion method; type: functional; settings: MTCC 3020, 24 h
Candida albicans [24] = assay: Antimicrobial activity against Candida albicans MTCC 4748 after 24 hrs by well diffusion method; type: functional; settings: MTCC 4748, 24 h
Pichia sporocuriosa [25] = assay: Fungicidal activity against Issatchenkia hanoiensis MTCC 4755 after 24 hrs by serial dilution method; type: functional; settings: MTCC 4755, 24 h
Candida albicans [26] = assay: Fungicidal activity against Candida albicans MTCC 1637 after 24 hrs by serial dilution method; type: functional; settings: MTCC 1637, 24 h
Micrococcus luteus [27] = assay: Bactericidal activity against Micrococcus luteus MTCC 2470 after 24 hrs by serial dilution method; type: functional; settings: MTCC 2470, 24 h
Staphylococcus aureus [28] = assay: Bactericidal activity against Staphylococcus aureus MLS16 MTCC 2940 after 24 hrs by serial dilution method; type: functional; settings: MLS16 MTCC 2940, 24 h
Bacillus subtilis [29] = assay: Bactericidal activity against Bacillus subtilis MTCC 121 after 24 hrs by serial dilution method; type: functional; settings: MTCC 121, 24 h
Micrococcus luteus [30] = assay: Antimicrobial activity against Micrococcus luteus MTCC 2470 after 24 hrs by well diffusion method; type: functional; settings: MTCC 2470, 24 h
Staphylococcus aureus [31] = assay: Antibiofilm activity against Staphylococcus aureus MLS16 MTCC 2940 after 24 hrs by crystal violet staining based assay; type: functional, organism-based; settings: MLS16 MTCC 2940, 24 h
Raoultella planticola [32] = assay: Antimicrobial activity against Klebsiella planticola MTCC 530 after 24 hrs by well diffusion method; type: functional; settings: MTCC 530, 24 h
Raoultella planticola [33] = assay: Antibiofilm activity against Klebsiella planticola MTCC 530 after 24 hrs by crystal violet staining based assay; type: functional, organism-based; settings: MTCC 530, 24 h
Candida albicans [34] = assay: Antimicrobial activity against Candida albicans MTCC 227 after 24 hrs by well diffusion method; type: functional; settings: MTCC 227, 24 h
Candida albicans [35] = assay: Fungicidal activity against Candida albicans MTCC 4748 after 24 hrs by serial dilution method; type: functional; settings: MTCC 4748, 24 h
Nakaseomyces glabratus [36] = assay: Fungicidal activity against Candida glabrata MTCC 3019 after 24 hrs by serial dilution method; type: functional; settings: MTCC 3019, 24 h
Micrococcus luteus [37] = assay: Antibiofilm activity against Micrococcus luteus MTCC 2470 after 24 hrs by crystal violet staining based assay; type: functional, organism-based; settings: MTCC 2470, 24 h
Candida albicans [38] = assay: Antimicrobial activity against Candida albicans MTCC 3018 after 24 hrs by well diffusion method; type: functional; settings: MTCC 3018, 24 h
Bacillus subtilis [39] = assay: Antimicrobial activity against Bacillus subtilis MTCC 121 after 24 hrs by well diffusion method; type: functional; settings: MTCC 121, 24 h
Candida parapsilosis [40] = assay: Antimicrobial activity against Candida parapsilosis MTCC 1744 after 24 hrs by well diffusion method; type: functional; settings: Lodderomyces parapsilosis, MTCC 1744, 24 h
Candida albicans [41] = assay: Antimicrobial activity against Candida albicans MTCC 183 after 24 hrs by well diffusion method; type: functional; settings: MTCC 183, 24 h
Raoultella planticola [42] = assay: Bactericidal activity against Klebsiella planticola MTCC 530 after 24 hrs by serial dilution method; type: functional; settings: MTCC 530, 24 h
Candida albicans [43] = assay: Antimicrobial activity against Candida albicans MTCC 7315 after 24 hrs by well diffusion method; type: functional; settings: MTCC 7315, 24 h
Candida albicans [44] = assay: Antimicrobial activity against Candida albicans MTCC 1637 after 24 hrs by well diffusion method; type: functional; settings: MTCC 1637, 24 h

In the case of `CCCN(C)C(=O)c1ccc(-c2cc(C3=C(N4CC4)C(=O)C=C(N4CC4)C3=O)no2)s1`, the MFC (Candida albicans [1]) is reported as 125 µg/mL (≈ 285 µM), the MFC (Candida parapsilosis [2]) is reported as 31.2 µg/mL (≈ 71.2 µM) and the MFC (Candida albicans [3]) is reported as 62.5 µg/mL (≈ 143 µM). For the same compound, the MFC (Candida albicans [4]) was 31.2 µg/mL (≈ 71.2 µM), the IC50 [5] was 0.6 µM and the MIC (Nakaseomyces glabratus [6]) was 15.6 µg/mL (≈ 35.6 µM). The MFC ([Candida] aaseri [7]) was 15.6 µg/mL (≈ 35.6 µM), the MIC (Candida albicans [8]) was 7.8 µg/mL (≈ 17.8 µM) and the MFC (Candida albicans [9]) was 125 µg/mL (≈ 285 µM). The MIC (Pseudomonas aeruginosa) was > 125 µg/mL, the MIC (Pichia sporocuriosa [10]) was 15.6 µg/mL (≈ 35.6 µM) and the IC50 (Staphylococcus aureus [11]) was 4.6 µM. The MIC (Candida albicans [12]) was 62.5 µg/mL (≈ 143 µM), the MFC (Candida albicans [13]) was 125 µg/mL (≈ 285 µM) and the MIC (Candida albicans [14]) was 62.5 µg/mL (≈ 143 µM). For the same compound, the IC50 (A549) was 2.7 µM, the MFC (Pichia kudriavzevii [15]) was 31.2 µg/mL (≈ 71.2 µM) and the MBC (Staphylococcus aureus [16]) was 15.6 µg/mL (≈ 35.6 µM). The MFC (Candida albicans [17]) was 31.2 µg/mL (≈ 71.2 µM), the MIC ([Candida] aaseri [18]) was 7.8 µg/mL (≈ 17.8 µM) and the MIC (Staphylococcus aureus [19]) was 15.6 µg/mL (≈ 35.6 µM). For the same compound, the MFC (Candida albicans [20]) was 125 µg/mL (≈ 285 µM), the MIC (Escherichia coli) was > 125 µg/mL and the MIC (Staphylococcus aureus [21]) was 7.8 µg/mL (≈ 17.8 µM). For the same compound, the IC50 (Bacillus subtilis [22]) was 2.2 µM, the MIC (Pichia kudriavzevii [23]) was 15.6 µg/mL (≈ 35.6 µM) and the MIC (Candida albicans [24]) was 31.2 µg/mL (≈ 71.2 µM). For the same compound, the MFC (Pichia sporocuriosa [25]) was 62.5 µg/mL (≈ 143 µM), the MFC (Candida albicans [26]) was 125 µg/mL (≈ 285 µM) and the MBC (Micrococcus luteus [27]) was 31.2 µg/mL (≈ 71.2 µM). It also gave an MBC (Staphylococcus aureus [28]) of 31.2 µg/mL (≈ 71.2 µM), an MBC (Bacillus subtilis [29]) of 7.8 µg/mL (≈ 17.8 µM) and an MIC (Micrococcus luteus [30]) of 15.6 µg/mL (≈ 35.6 µM). It also gave an IC50 (Staphylococcus aureus [31]) of 10.6 µM, an MIC (Raoultella planticola [32]) of 7.8 µg/mL (≈ 17.8 µM) and an IC50 (Raoultella planticola [33]) of 3.5 µM. It also gave an MIC (Candida albicans [34]) of 62.5 µg/mL (≈ 143 µM), an MFC (Candida albicans [35]) of 62.5 µg/mL (≈ 143 µM) and an MFC (Nakaseomyces glabratus [36]) of 31.2 µg/mL (≈ 71.2 µM). For the same compound, the IC50 (Micrococcus luteus [37]) was 8.9 µM, the MIC (Candida albicans [38]) was 31.2 µg/mL (≈ 71.2 µM) and the MIC (Bacillus subtilis [39]) was 3.9 µg/mL (≈ 8.89 µM). The MIC (Candida parapsilosis [40]) was 15.6 µg/mL (≈ 35.6 µM), the MIC (Candida albicans [41]) was 31.2 µg/mL (≈ 71.2 µM) and the MBC (Raoultella planticola [42]) was 15.6 µg/mL (≈ 35.6 µM). For the same compound, the MIC (Candida albicans [43]) was 15.6 µg/mL (≈ 35.6 µM) and the MIC (Candida albicans [44]) was 62.5 µg/mL (≈ 143 µM).
